Values after ≈ are worked out from the molar mass of the structure shown.
Tests used:
Assay type in all cases: functional
Streptococcus pyogenes [1] = assay: Antibacterial activity against efflux-resistant Streptococcus pyogenes B0545 by agar microdilution method
Staphylococcus aureus [2] = assay: Antibacterial activity against erythromycin A-susceptible Staphylococcus aureus B0329 by agar microdilution method
Streptococcus pyogenes [3] = assay: Antibacterial activity against inducible macrolide-lincosamide-streptogramin B-resistant Streptococcus pyogenes B0543 by agar microdilution method
Streptococcus pyogenes [4] = assay: Antibacterial activity against erythromycin A-susceptible Streptococcus pyogenes B0542 by agar microdilution method
Streptococcus pneumoniae [5] = assay: Antibacterial activity against constitutive macrolide-lincosamide-streptogramin B-resistant Streptococcus pneumoniae B0627 by agar microdilution method
Streptococcus pneumoniae [6] = assay: Antibacterial activity against erythromycin A-susceptible Streptococcus pneumoniae B0541 by agar microdilution method
Staphylococcus aureus [7] = assay: Antibacterial activity against efflux-resistant Staphylococcus aureus B0331 by agar microdilution method
Streptococcus pneumoniae [8] = assay: Antibacterial activity against efflux-resistant Streptococcus pneumoniae B0326 by agar microdilution method
Haemophilus influenzae = assay: Antibacterial activity against Haemophilus influenzae B0529 by agar microdilution method
Streptococcus pyogenes [9] = assay: Antibacterial activity against constitutive macrolide-lincosamide-streptogramin B-resistant Streptococcus pyogenes B0544 by agar microdilution method
Staphylococcus aureus [10] = assay: Antibacterial activity against constitutive macrolide-lincosamide-streptogramin B-resistant Staphylococcus aureus B0330 by agar microdilution method
Staphylococcus aureus [11] = assay: Antibacterial activity against inducible macrolide-lincosamide-streptogramin B-resistant Staphylococcus aureus B0538 by agar microdilution method
Moraxella catarrhalis = assay: Antibacterial activity against Moraxella catarrhalis B0324 by agar microdilution method

| SMILES | MIC (Streptococcus pyogenes [1]) [mg/L] | MIC (Staphylococcus aureus [2]) [mg/L] | MIC (Streptococcus pyogenes [3]) [mg/L] | MIC (Streptococcus pyogenes [4]) [mg/L] | MIC (Streptococcus pneumoniae [5]) [mg/L] | MIC (Streptococcus pneumoniae [6]) [mg/L] | MIC (Staphylococcus aureus [7]) [mg/L] | MIC (Streptococcus pneumoniae [8]) [mg/L] | MIC (Haemophilus influenzae) [mg/L] | MIC (Streptococcus pyogenes [9]) [mg/L] | MIC (Staphylococcus aureus [10]) [mg/L] | MIC (Staphylococcus aureus [11]) [mg/L] | MIC (Moraxella catarrhalis) [mg/L] |
| --- | --- | --- | --- | --- | --- | --- | --- | --- | --- | --- | --- | --- | --- |
| CC[C@H]1OC(=O)[C@H](C)C(=O)[C@H](C)[C@@H](O[C@@H]2O[C@H](C)C[C@H](N(C)C)[C@H]2O)[C@](C)(OCC(O)CN(C)CCc2ccc([N+](=O)[O-])cc2)C[C@@H](C)NC(=O)[C@H](C)[C@H](O)[C@@]1(C)O (stereo partly drawn) | 0.25 (≈ 0.303 µM) | ≤ 0.125 | 0.25 (≈ 0.303 µM) | ≤ 0.125 | ≤ 0.125 | ≤ 0.125 | 1 (≈ 1.21 µM) | 0.5 (≈ 0.606 µM) | 1 (≈ 1.21 µM) | 1 (≈ 1.21 µM) | > 64 | 0.5 (≈ 0.606 µM) | ≤ 0.125 |
| CC[C@H]1OC(=O)[C@H](C)C(=O)[C@H](C)[C@@H](O[C@@H]2O[C@H](C)C[C@H](N(C)C)[C@H]2O)[C@](C)(OCC(O)CN2CCN(c3ccc4c(c3)c(=O)c(C(=O)O)cn4C3CC3)CC2)C[C@@H](C)NC(=O)[C@H](C)[C@H](O)[C@@]1(C)O (stereo partly drawn) | 2 (≈ 2.09 µM) | 0.25 (≈ 0.261 µM) | 0.25 (≈ 0.261 µM) | ≤ 0.125 | 1 (≈ 1.04 µM) | ≤ 0.125 | 2 (≈ 2.09 µM) | 0.5 (≈ 0.522 µM) | 2 (≈ 2.09 µM) | 4 (≈ 4.17 µM) | > 64 | 0.25 (≈ 0.261 µM) | 1 (≈ 1.04 µM) |
| CC[C@H]1OC(=O)[C@H](C)C(=O)[C@H](C)[C@@H](O[C@@H]2O[C@H](C)C[C@H](N(C)C)[C@H]2O)[C@](C)(OCC(O)CNc2ccc3ncccc3c2)C[C@@H](C)NC(=O)[C@H](C)[C@H](O)[C@@]1(C)O (stereo partly drawn) | 8 (≈ 10.1 µM) | 2 (≈ 2.53 µM) | 4 (≈ 5.07 µM) | ≤ 0.125 | 8 (≈ 10.1 µM) | ≤ 0.125 | 1 (≈ 1.27 µM) | 2 (≈ 2.53 µM) | ≤ 0.125 | 16 (≈ 20.3 µM) | 64 (≈ 81.1 µM) | 2 (≈ 2.53 µM) | 0.5 (≈ 0.634 µM) |
| CC[C@H]1OC(=O)[C@H](C)C(=O)[C@H](C)[C@@H](O[C@@H]2O[C@H](C)C[C@H](N(C)C)[C@H]2O)[C@](C)(OCC(O)CNCCNc2cc3c(=O)c(C(=O)O)cn(C4CC4)c3cc2Cl)C[C@@H](C)NC(=O)[C@H](C)[C@H](O)[C@@]1(C)O (stereo partly drawn) | 4 (≈ 4.14 µM) | 1 (≈ 1.03 µM) | 4 (≈ 4.14 µM) | ≤ 0.125 | 4 (≈ 4.14 µM) | ≤ 0.125 | 0.5 (≈ 0.517 µM) | 1 (≈ 1.03 µM) | 8 (≈ 8.28 µM) | 32 (≈ 33.1 µM) | > 64 | 2 (≈ 2.07 µM) | 4 (≈ 4.14 µM) |
| CC[C@H]1OC(=O)[C@H](C)C(=O)[C@H](C)[C@@H](O[C@@H]2O[C@H](C)C[C@H](N(C)C)[C@H]2O)[C@](C)(OC/C=C/c2ccnc3ccccc23)C[C@@H](C)NC(=O)[C@H](C)[C@H](O)[C@@]1(C)O | 2 (≈ 2.65 µM) | 0.5 (≈ 0.661 µM) | 2 (≈ 2.65 µM) | 0.25 (≈ 0.331 µM) | > 64 | ≤ 0.125 | 2 (≈ 2.65 µM) | 1 (≈ 1.32 µM) | 4 (≈ 5.29 µM) | 16 (≈ 21.2 µM) | > 64 | 1 (≈ 1.32 µM) | 0.5 (≈ 0.661 µM) |
| C=CCO[C@]1(C)C[C@@H](C)NC(=O)[C@H](C)[C@H](O)[C@@](C)(O)[C@@H](CC)OC(=O)[C@H](C)[C@@H](O[C@@H]2C[C@@](C)(OC)[C@@H](O)[C@H](C)O2)[C@H](C)[C@H]1O[C@@H]1O[C@H](C)C[C@H](N(C)C)[C@H]1O | 16 (≈ 20.3 µM) | 0.25 (≈ 0.317 µM) | 16 (≈ 20.3 µM) | ≤ 0.125 | > 64 | ≤ 0.125 | 64 (≈ 81.1 µM) | 8 (≈ 10.1 µM) | 1 (≈ 1.27 µM) | > 64 | > 64 | > 64 | ≤ 0.125 |
| CC[C@H]1OC(=O)[C@H](C)C(=O)[C@H](C)[C@@H](O[C@@H]2O[C@H](C)C[C@H](N(C)C)[C@H]2O)[C@](C)(OCC(O)CNCC(C)C)C[C@@H](C)NC(=O)[C@H](C)[C@H](O)[C@@]1(C)O (stereo partly drawn) | 8 (≈ 11.1 µM) | 64 (≈ 89.1 µM) | 64 (≈ 89.1 µM) | 8 (≈ 11.1 µM) | > 64 | 16 (≈ 22.3 µM) | 64 (≈ 89.1 µM) | 64 (≈ 89.1 µM) | > 64 | > 64 | > 64 | 64 (≈ 89.1 µM) | 16 (≈ 22.3 µM) |
| CC[C@H]1OC(=O)[C@H](C)[C@@H](O[C@@H]2C[C@@](C)(OC)[C@@H](O)[C@H](C)O2)[C@H](C)[C@@H](O[C@@H]2O[C@H](C)C[C@H](N(C)C)[C@H]2O)[C@](C)(OC/C=C/N[C@H](C)Cc2ccc([N+](=O)[O-])cc2)C[C@@H](C)NC(=O)[C@H](C)[C@H](O)[C@@]1(C)O | 32 (≈ 33.1 µM) | 0.5 (≈ 0.517 µM) | 8 (≈ 8.27 µM) | ≤ 0.125 | > 64 | ≤ 0.125 | 64 (≈ 66.2 µM) | 64 (≈ 66.2 µM) | 16 (≈ 16.5 µM) | > 64 | > 64 | > 64 | 2 (≈ 2.07 µM) |
| CC[C@H]1OC(=O)[C@H](C)C(=O)[C@H](C)[C@@H](O[C@@H]2O[C@H](C)C[C@H](N(C)C)[C@H]2O)[C@](C)(OC/C=C/c2cnc3ccccc3c2)C[C@@H](C)C(=O)N[C@H](C)[C@H](O)[C@@]1(C)O | 4 (≈ 5.29 µM) | 8 (≈ 10.6 µM) | 64 (≈ 84.7 µM) | 0.5 (≈ 0.661 µM) | 64 (≈ 84.7 µM) | 2 (≈ 2.65 µM) | 16 (≈ 21.2 µM) | 8 (≈ 10.6 µM) | 32 (≈ 42.3 µM) | > 64 | > 64 | 16 (≈ 21.2 µM) | 2 (≈ 2.65 µM) |
| CC[C@H]1OC(=O)[C@H](C)C(=O)[C@H](C)[C@@H](O[C@@H]2O[C@H](C)C[C@H](N(C)C)[C@H]2O)[C@](C)(OCC(O)CN[C@H](C)Cc2ccccc2)C[C@@H](C)NC(=O)[C@H](C)[C@H](O)[C@@]1(C)O (stereo partly drawn) | 0.5 (≈ 0.641 µM) | 0.5 (≈ 0.641 µM) | 0.5 (≈ 0.641 µM) | ≤ 0.125 | 2 (≈ 2.56 µM) | ≤ 0.125 | 2 (≈ 2.56 µM) | 1 (≈ 1.28 µM) | 1 (≈ 1.28 µM) | 4 (≈ 5.13 µM) | > 64 | 2 (≈ 2.56 µM) | 0.25 (≈ 0.321 µM) |
| CC[C@H]1OC(=O)[C@H](C)[C@@H](O[C@@H]2C[C@@](C)(OC)[C@@H](O)[C@H](C)O2)[C@H](C)[C@@H](O[C@@H]2O[C@H](C)C[C@H](N(C)C)[C@H]2O)[C@](C)(OC/C=C/NCCc2ccc([N+](=O)[O-])cc2)C[C@@H](C)C(=O)N[C@H](C)[C@H](O)[C@@]1(C)O | 16 (≈ 16.8 µM) | 32 (≈ 33.6 µM) | 4 (≈ 4.2 µM) | 0.125 (≈ 0.131 µM) | > 64 | > 64 | 32 (≈ 33.6 µM) | 16 (≈ 16.8 µM) | 64 (≈ 67.1 µM) | > 64 | > 64 | > 64 | 8 (≈ 8.39 µM) |
| CC[C@H]1OC(=O)[C@H](C)C(=O)[C@H](C)[C@@H](O[C@@H]2O[C@H](C)C[C@H](N(C)C)[C@H]2O)[C@](C)(OC/C=C/c2cnc3ccccc3c2)C[C@@H](C)NC(=O)[C@H](C)[C@@H]2OC(=O)O[C@]12C | 0.5 (≈ 0.639 µM) | ≤ 0.125 | ≤ 0.125 | ≤ 0.125 | 4 (≈ 5.12 µM) | 0.06 (≈ 0.0767 µM) | 0.25 (≈ 0.32 µM) | ≤ 0.125 | 1 (≈ 1.28 µM) | 8 (≈ 10.2 µM) | 64 (≈ 81.8 µM) | 0.25 (≈ 0.32 µM) | 0.25 (≈ 0.32 µM) |
| CC[C@H]1OC(=O)[C@H](C)C(=O)[C@H](C)[C@@H](O[C@@H]2O[C@H](C)C[C@H](N(C)C)[C@H]2O)[C@](C)(OCCCC2CNc3ccccc3C2)C[C@@H](C)NC(=O)[C@H](C)[C@H](O)[C@@]1(C)O (stereo partly drawn) | 8 (≈ 10.5 µM) | 2 (≈ 2.62 µM) | 16 (≈ 21 µM) | ≤ 0.125 | 64 (≈ 84 µM) | ≤ 0.125 | 64 (≈ 84 µM) | 8 (≈ 10.5 µM) | 16 (≈ 21 µM) | > 64 | 64 (≈ 84 µM) | > 64 | 1 (≈ 1.31 µM) |
| CC[C@H]1OC(=O)[C@H](C)C(=O)[C@H](C)[C@@H](O[C@@H]2O[C@H](C)C[C@H](N(C)C)[C@H]2O)[C@](C)(OCC(O)CN2CCN(c3ccc4c(c3F)c(=O)c(C(=O)OC)cn4C3CC3)CC2)C[C@@H](C)NC(=O)[C@H](C)[C@H](O)[C@@]1(C)O (stereo partly drawn) | 16 (≈ 16.2 µM) | 4 (≈ 4.04 µM) | > 64 | 0.125 (≈ 0.126 µM) | > 64 | 0.125 (≈ 0.126 µM) | 32 (≈ 32.3 µM) | 0.25 (≈ 0.252 µM) | 4 (≈ 4.04 µM) | > 64 | > 64 | > 64 | 0.5 (≈ 0.505 µM) |
| CC[C@H]1OC(=O)[C@H](C)C(=O)[C@H](C)[C@@H](O[C@@H]2O[C@H](C)C[C@H](N(C)C)[C@H]2O)[C@](C)(OCC(O)CN2CCN(c3cc4c(=O)c(C(=O)O)cn(C5CC5)c4cc3Cl)CC2)C[C@@H](C)NC(=O)[C@H](C)[C@H](O)[C@@]1(C)O (stereo partly drawn) | 0.5 (≈ 0.504 µM) | 1 (≈ 1.01 µM) | 1 (≈ 1.01 µM) | ≤ 0.125 | 1 (≈ 1.01 µM) | ≤ 0.125 | 0.25 (≈ 0.252 µM) | 0.25 (≈ 0.252 µM) | 1 (≈ 1.01 µM) | 4 (≈ 4.03 µM) | > 64 | 1 (≈ 1.01 µM) | ≤ 0.125 |
| CC[C@H]1OC(=O)[C@H](C)C(=O)[C@H](C)[C@@H](O[C@@H]2O[C@H](C)C[C@H](N(C)C)[C@H]2O)[C@](C)(OCC(O)CNCCNc2ccc3c(c2F)c(=O)c(C(=O)O)cn3C2CC2)C[C@@H](C)NC(=O)[C@H](C)[C@H](O)[C@@]1(C)O (stereo partly drawn) | 16 (≈ 16.8 µM) | 1 (≈ 1.05 µM) | 1 (≈ 1.05 µM) | ≤ 0.125 | 2 (≈ 2.11 µM) | ≤ 0.125 | 4 (≈ 4.21 µM) | 2 (≈ 2.11 µM) | 2 (≈ 2.11 µM) | 8 (≈ 8.42 µM) | > 64 | 1 (≈ 1.05 µM) | 2 (≈ 2.11 µM) |

— ChEMBL document CHEMBL1287771, “Novel hybrids of 15-membered 8a- and 9a-azahomoerythromycin A ketolides and quinolones as potent antibacterials” (2010)
